Source: patent EP2435019B1, “DODECA-2E,4E-DIENE AMIDES AND THEIR USE AS MEDICAMENTS AND COSMETICS” (Dr. August Wolff GmbH & Co. KG Arzneimittel, priority 2009, dated 2010)
Read-outs that look alike come from different tables or passages of the source.

What was measured:
CB2 = CB2 (Homo sapiens, UniProt P34972); assay: Radioligand displacement assay on CB2 receptor; assay type: binding; set-up: purchased Perkin Elmer RBXCB2M; conditions: for affinity towards CB2 (in words): summary of Table 3
Experimental: (§1) For the CB1 receptor, binding experiments were performed in the presence of 0.39 nM of the radioligand [^3H]CP55,940 (168 Ci/mmol) (Perkin Elmer, Waltham, MA, US) at 30°C in siliconized glass vials together with 7.16 µg of membrane recombinantly over-expressing CB1 (No. RBHCB1M, Perkin Elmer, Waltham, MA, US), which was resuspended in 0.2 mL (final volume) binding-buffer (50 mM TRIS-HCl, 2.5 mM EGTA, 5 mM MgCl2, 0.5 mg/mL fatty acid free BSA, pH 7.4). Test compounds were present at varying concentrations and the nonspecific binding of the radioligand was determined in the presence of 10 µM CP55,940 (Tocris Cookson Ltd., Bristol, UK). After 1.5 h incubation, the suspension was rapidly filtered through 0.05% polyethylenimine pre-soaked GF/C glass fiber filters on a 96-well cell harvester and washed nine times with 0.5 mL ice-cold washing-buffer (50 mM TRIS-HCl, 2.5 mM EGTA, 5 mM MgCl2, 2% BSA, pH 7.4). Radioactivity on filters was measured with a Beckman LS 6500 scintillation counter in 3 mL Ultima Gold scintillation liquid (Perkin Elmer, Waltham, MA, US). Data collected from three independent experiments performed in triplicates were normalized between 100% and 0% specific binding for [^3H]CP55,940. […] Derived from the dissociation constant (KD) of [^3H]CP55,940 and the concentration-dependent displacement (IC50 value), inhibition constants (Ki) of competitor compounds were calculated using the Cheng-Prusoff equation [Ki = IC50/(1+ L/KD)].
For CB2-receptor binding studies 3.8 µg of membrane recombinantly over-expressing CB2 (No. RBXCB2M, Perkin Elmer, Waltham, MA, US) were resuspended in 0.6 mL binding buffer (see above) together with 0.11 nM of the radioligand [^3H]CP55,940. The CB2-binding assay was conducted in the same manner as for CB1.

[1] = Critical micelle concentration (CMC) measurement, dye micellization; assay type: physicochemical; conditions: fluorescein dye micellization in water, pH 6.9, room temperature
Experimental: Dye micellization was carried out with a modified version of the method described by Eliyahu et al., Novel dextran-spermine conjugates as transfecting agents: comparing water-soluble and micellar polymers. […] Experiments were carried out on 96-well microtiter plates (excitation at 485 nm, emission at 535 nm). Since the emission of fluorescein is pH-dependent, the pH of the mixture was kept constant at 6.9. The CMC range was determined as the concentration range where the first statistically significant increase in fluorescence was detected.

[2] = test system: Arachidonoylethanolamide Transport (AEAT); assay: Cellular uptake of [3H]-AEA in U937 cells (assay C); assay type: cell-based; conditions: Homo sapiens, U-937; [3H]-AEA uptake, assay C (Tables 2 and 3)
CB1 = biological target: T1, CB1 (Homo sapiens, UniProt P21554); assay: Radioligand displacement assay on CB1 receptor; assay type: binding; conditions: for affinity towards CB1 (in words): summary of Table 3
T1 construct: purchased Perkin Elmer RBHCB1M
Experimental: as §1

FAAH = biological target: T2, FAAH (Sus scrofa, UniProt Q9TUI8); assay: Fatty acid amide hydrolase (FAAH) inhibition, pig brain homogenate (assay D); assay type: biochemical; conditions: 1 µM; pig brain homogenate (assay D)
T2 construct: 165 µl of diluted pig brain homogenate; from tissue; host or cells: pig brain homogenate
T2 sequence (Q9TUI8 1-579): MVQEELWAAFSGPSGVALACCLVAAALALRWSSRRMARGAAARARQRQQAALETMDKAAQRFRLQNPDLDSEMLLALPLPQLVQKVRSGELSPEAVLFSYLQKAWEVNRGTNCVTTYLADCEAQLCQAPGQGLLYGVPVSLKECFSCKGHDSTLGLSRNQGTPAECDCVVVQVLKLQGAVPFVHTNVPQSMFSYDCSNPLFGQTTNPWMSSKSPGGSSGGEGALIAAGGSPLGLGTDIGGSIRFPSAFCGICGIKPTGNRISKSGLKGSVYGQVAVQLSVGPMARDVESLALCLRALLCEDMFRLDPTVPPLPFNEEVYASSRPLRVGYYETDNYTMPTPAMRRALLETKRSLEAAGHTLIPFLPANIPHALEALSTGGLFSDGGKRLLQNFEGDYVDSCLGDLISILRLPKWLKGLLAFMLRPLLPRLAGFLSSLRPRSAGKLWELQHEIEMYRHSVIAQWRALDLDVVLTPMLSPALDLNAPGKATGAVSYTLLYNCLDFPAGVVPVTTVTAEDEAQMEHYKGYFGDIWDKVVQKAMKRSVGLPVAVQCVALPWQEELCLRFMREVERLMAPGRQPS
Experimental: FAAH activity was assessed using pig brain homogenate according to the method described by Omeir et al., Arachidonoyl ethanolamide-[1,2-14C] as a substrate for anandamide amidase. Life Sci. 1995;56(23-24):1999-2005, and adapted by Fowler et al., Ibuprofen inhibits rat brain deamidation of anandamide at pharmacologically relevant concentrations. Mode of inhibition and structure-activity relationship. J Pharmacol Exp Ther. 1997 Nov;283(2):729-34. Briefly, 10 µl of test compounds at the adequate concentration or solvent were incubated at 37°C for 20 min with 165 µl of diluted pig brain homogenate in 10 mM Tris-HCl and 1 mM EDTA, pH 7.6 (corresponding to 100 µg/ml of total protein), 1% w/v fatty acid free BSA (Sigma, San Louis, MO, US) and 25 µl of a mixture 1:1 of nonradioactive AEA [^3H]-AEA (60 Ci mmol^-1) (concentration in the assay was 2 µM). Successively, 400 µl of a mixture 1:1 (v/v) of methanol:chloroform was added at each sample and, after vigorous vortexing, aqueous and organic phases were separated by centrifugation at 10000 rpm for 10 min. The radioactivity associated to the [^3H]-ethanolamine (produced by FAAH-catalysed breakdown of [^3H]-AEA) was measured upon addition of 3 ml of Ultima Gold scintillation liquid (Perkin Elmer, Waltham, MA, US) to 200 µl of the aqueous (upper) phase, using a Beckman LS6500 scintillation counter. Results were expressed as % of FAAH activity vs. pig brain homogenate treated only with solvent.

IL-8 = assay: Induced chemokine IL-8 in HaCaT keratinocytes; assay type: cell-based, human; conditions: Figure 6, 5 µM, tolerogen 10 µg/ml, 6h
Experimental: (§2) • Figure 1: AEA re-uptake inhibition of 2E,4E-dieneamides 1 and 9 into human primary monocytes and U937 cells. […] Data are mean values ± SEM of 3 independent experiments in a sigmoidal dose-response curve. • Figure 2: Concentration-dependent effects of 4 and 5 on FAAH activity. […] The maximal inhibition (32%) of 5 was measured at 1 µM. Data are mean values ± SEM of 3 independent experiments. • Figure 3: Effects of low nM concentrations of N-alkylamide 7 on FAAH activity alone and in combination with the FAAH inhibitor URB597. […] Data are mean values ± SEM of 3 independent experiments. • Figure 4: 1 and 9 inhibit LPS-induced TNF-alpha release into culture medium (measured by ELISA). Human macrophages (10^6 cells) were stimulated with LPS (500 ng/ml) and treated with UCM707 and/or compounds 1 and 9 at 5 µM for 18 h. N = 3 ± SEM. • Figure 5: UCM707 (positive control) and compounds 1 and 9 diminish NO2^- production. Human macrophages (10^6 cells) were stimulated with LPS (500 ng/ml) and treated with UCM707 and/or compounds 1 and 9 at 5 µM for 18 h. Culture supernatants were assayed for nitrite levels, using the Griess reagent as a reflection of NO production. Results are the mean ± SEM of four independent experiments performed in duplicate • Figure 6: In CB receptor expressing human HaCaT keratinocytes (10^6 cells) UCM707 (control) 1 and 9 like the endocannabinoid anandamide (each 5 µM) inhibited tolerogen (10 µg/ml) induced chemokine IL-8 (6h stimulation and incubation). N = 3 ± SEM.

NO2^- production = assay: NO2- production in LPS-stimulated human macrophages (Griess reagent); assay type: cell-based; conditions: Figure 5; LPS 500 ng/ml; 5 µM for 18 h
Experimental: as §2

[3] = test system: Arachidonoylethanolamide Transport (AEAT); assay: Cellular uptake of [3H]-AEA in U937 cells (assay C); assay type: cell-based, Human; conditions: Figure 1(b); mean ± SEM of 3 independent experiments; read-out: EC50 value, AEA re-uptake inhibition
Experimental: 5x10^5 cells were collected and suspended in 500 µL of sterile PBS (Sigma, San Louis, MO, US) using glass silanized tubes. Cells were pre-incubated 10 min at 37°C in presence of test compounds in a concentration range of 10^-8 - 10^-4 M or in presence of the same amount of solvent (control). Then a mixture of 50 nM [^3H]-AEA (60 Ci/mmol) (American Radiolabeled Chemicals, Inc., San Louis, MO, US) and 50 nM of nonradioactive AEA (Tocris Cookson Ltd., Bristol, UK) was added and samples were incubated at 37°C for different times in the range of 1-60 min. The reaction was stopped by rapid filtration over Whatman GF/C filters pre-soaked in 0,25 % BSA. […] The filters-bound radioactivity was measured using a Beckman LS6500 scintillation counter. Results were expressed as % of AEA uptake versus cells treated with solvent and the EC50 and IC50 values were calculated from the sigmoidal curves, which were generated using the GraphPad Prism (GraphPad Software, San Diego, CA, US).

[3H]-AEA uptake = Cellular uptake of [3H]-AEA in human primary monocytes (assay C); assay type: cell-based; conditions: Figure 1(a), 1 µM
Experimental: as §2, with “Results are the mean ± SEM of four independent experiments performed in duplicate • Figure 6: In CB receptor expressing human HaCaT keratinocytes (10^6 cells) UCM707 (control) 1 and 9 like the endocannabinoid anandamide (each 5 µM) inhibited tolerogen (10 µg/ml) induced chemokine IL-8 (6h stimulation and incubation). N = 3 ± SEM.” left out
Human lymphoma U937 cells were grown in RPMI 1640 medium (Invitrogen, Basel, Switzerland) supplemented with 10% fetal bovine serum, […] fungizone (amphotericin B), 100 units/ml penicillin, 100 µg/ml streptomycin, and 2 mM L-glutamine (all from Invitrogen) and selected for the cellular AEA uptake assay. […] The filters-bound radioactivity was measured using a Beckman LS6500 scintillation counter. Results were expressed as % of AEA uptake versus cells treated with solvent and the EC50 and IC50 values were calculated from the sigmoidal curves, which were generated using the GraphPad Prism (GraphPad Software, San Diego, CA, US).

Chain of CB2 (P34972 whole entry): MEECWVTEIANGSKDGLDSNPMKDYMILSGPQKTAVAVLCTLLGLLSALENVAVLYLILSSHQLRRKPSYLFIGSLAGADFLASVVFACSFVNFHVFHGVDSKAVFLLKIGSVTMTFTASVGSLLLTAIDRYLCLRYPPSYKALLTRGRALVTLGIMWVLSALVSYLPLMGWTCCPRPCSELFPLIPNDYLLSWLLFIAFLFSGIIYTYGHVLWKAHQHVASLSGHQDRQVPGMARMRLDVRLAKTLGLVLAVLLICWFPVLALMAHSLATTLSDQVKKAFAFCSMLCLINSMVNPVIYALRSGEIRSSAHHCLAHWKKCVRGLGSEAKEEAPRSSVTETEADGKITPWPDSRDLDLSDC
T1 sequence (P21554 whole entry): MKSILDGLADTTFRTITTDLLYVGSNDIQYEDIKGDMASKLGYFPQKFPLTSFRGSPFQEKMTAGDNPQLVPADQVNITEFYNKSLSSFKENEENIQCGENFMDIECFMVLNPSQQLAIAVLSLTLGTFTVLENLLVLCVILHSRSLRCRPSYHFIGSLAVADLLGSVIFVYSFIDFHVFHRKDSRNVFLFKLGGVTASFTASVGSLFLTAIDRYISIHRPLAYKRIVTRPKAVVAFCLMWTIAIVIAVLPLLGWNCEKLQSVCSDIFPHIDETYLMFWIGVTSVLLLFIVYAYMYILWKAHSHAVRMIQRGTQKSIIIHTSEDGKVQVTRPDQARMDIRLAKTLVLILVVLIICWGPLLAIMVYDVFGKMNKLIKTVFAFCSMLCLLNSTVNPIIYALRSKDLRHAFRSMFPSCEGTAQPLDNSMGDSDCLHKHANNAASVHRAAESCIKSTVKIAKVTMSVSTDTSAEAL

SMILES	Ki (CB2; displacement of 0.11 nM [3H]CP55,940, membrane recombinantly over-expressing CB2, read-out: Receptor affinity Ki CB2)	affinity towards CB2 (in words) (CB2)	CMC [1]	EC50 [2]	Ki (CB1; displacement of 0.39 nM [3H]CP55,940, membrane recombinantly over-expressing CB1, read-out: Receptor affinity Ki CB1)	affinity towards CB1 (in words) (CB1)	FAAH inhibition at 1 µM (FAAH)	tolerogen induced chemokine IL-8 (IL-8)	NO2^- production (NO2^- production)	EC50 [3]	[3H]-AEA uptake inhibition ([3H]-AEA uptake)	Ki (CB2)	Ki (CB1)
CCCCCCC/C=C/C=C/C(=O)N1CCCCC1 [Compound E, (2E,4E)-1-(piperidin-1-yl)dodeca-2,4-dien-1-one]	2640 ± 224 nM	moderate affinity	>5 µM	> 10000 nM	2190 ± 180 nM	moderate affinity	<10 % of control						
CCCCC/C=C\C/C=C\C/C=C\C/C=C\CCCC(=O)NCc1ccoc1 [UCM707, reference compound]								inhibited	diminish	1420 ± 296 nM	clearly less active		
CCCCC/C=C\C/C=C\C/C=C\C/C=C\CCCC(=O)NCCO [anandamide, N-arachidonoylethanolamide, reference compound]								inhibited					
CCCCCCC/C=C/C=C/C(=O)NCC(C)CC (racemic) [Compound B, (2E,4E)-N-(2-methylbutyl)dodeca-2,4-diene amide]		moderate affinity	>5 µM	> 10000 nM		moderate affinity	<10 % of control					1100 ± 84 nM	1510 ± 214 nM
